From PubChem BioAssay AID624404 (Broad Institute, 2012) come the findings set out here.

Results filed as inconclusive are left out. Where only a bound is given, the exact number is not on record here.

In this assay the test system is D54 LucT luciferase reporter counterscreen, luminescence, 24 h. The assay is described as follows: luciferase activators in glycosylation-insensitive reporter cells, dose response, counter-screen for N-linked glycosylation inhibitor project, D54 LucT cells, luminescence, cherry pick (AID 624404). (In general: The purpose of a counterscreen is to sort out artefacts and off-target activity.)
Consider `COc1cccc(C(=O)Nc2sc3c(c2C#N)CCN(C(C)=O)C3)c1`, for which the AC35 is 0.0635 µM.

For `Cc1ccc(-c2cc(C(=O)Nc3ccncc3)c3ccccc3n2)cc1`, the AC35 is 4.3 µM.

On to `O=C(NCc1cccs1)C1Cc2c(-c3ccc(Cl)cc3)ccnc2O1` (centres undefined), for which the AC35 was 0.166 µM.

In the case of `COc1ccc(C(=O)n2c(-c3ccco3)nc3ccccc32)cc1`, the AC35 is 0.934 µM.

For `Cc1ccc(-c2cc(C(=O)N3CC(C)OC(C)C3)c3ccccc3n2)o1` (centres undefined), the AC35 was 2.91 µM.

For `C=CCOc1ccc(C(=O)Nc2ccccc2C(=O)NCc2cccnc2)cc1`, the AC35 is 0.109 µM.

Regarding `CCN1C(=O)Nc2cccc3cccc1c23`, the AC35 is 3.14 µM.

As for `O=c1cc(-c2ccccc2)[nH]c2ccccc12`, the AC35 is 2.48 µM.

Turning to `CCOC(=O)c1sc(Nc2nc(C)cc(C)n2)nc1C`, the AC35 is 1.07 µM.

For `COc1ccc(C(=O)c2ccc(OC)c(N)c2)cc1N`, the AC35 is 0.827 µM.

`Cc1ccc(-c2nc(NCCN(C)C)c3ccccc3n2)cc1`: the AC35 is 4.45 µM.

`CCOC(=O)c1[nH]c2c(c1-c1ccccc1)C(=O)CC(c1ccccc1)C2` (centres undefined): the AC35 was 2.69 µM.

As for `Cc1ccnc(NC(=O)CCCOc2cc(=O)n(C)c3ccccc23)c1`, the AC35 was 3.22 µM.

As to `CCCNC(=O)c1cc(-c2ccco2)on1`, the AC35 is 0.903 µM.

With `NNC(=O)c1ccc(OCC2CC(c3ccc(Cl)cc3)=NO2)cc1` (centres undefined), the AC35 was 0.157 µM.

As for `COc1ccc2c(c1)C(=O)N1[C@H]3c4cc(OC)ccc4OC[C@@H]3[C@H](c3ccccc3)[C@]1(C)C(=O)N2`, the AC35 is 0.0997 µM.

With `Cc1noc(C)c1-c1ccc(C(=O)NCCc2ccccc2)c2occc12`, the AC35 is 2.77 µM.

For `NC(=O)CC(NC(=O)Cc1ccc(Br)cc1)c1ccc(NC2CCCC2)c([N+](=O)[O-])c1` (centres undefined), the AC35 is 2.87 µM.

With `Cc1ccc2nsnc2c1NC(=O)c1ccc(-c2cc(Cl)ccc2Cl)o1`, the AC35 is 1.55 µM.

Take `Cc1cccc(/C=N\Nc2cn[nH]c(=O)c2Cl)c1`: the AC35 is 0.163 µM.

`Cc1ccc(C(=O)Nc2ccccc2C(=O)N2CC(C)OC(C)C2)cc1` (centres undefined): the AC35 was 0.625 µM.

Regarding `COc1ccc(/C=C2\CC/C(=C\c3ccc(OC)c(OC)c3)C2=O)cc1OC`, the AC35 is 0.155 µM.

Turning to `CCn1ncc(C2=NOC(C(=O)NCc3ccc(Cl)cc3)C2)c1C` (centres undefined), the AC35 was 14.7 µM.

For the compound `Cc1ccnc(NC(=O)C(Cc2ccccc2)NC(=O)c2ccccc2)c1` (centres undefined), the AC35 is 0.335 µM.

On to `COc1ccccc1CCNCc1ccc(OC)c(OCc2ccccc2)c1`, for which the AC35 is 1.17 µM.

For `O=C(Nc1cc(Cl)ccc1N1CCOCC1)c1ccc(N2CCCC2=O)cc1`, the AC35 is 0.212 µM.

Regarding `CCC(C)[C@H](NC(=O)N1CC(=O)Nc2ccccc21)C(=O)Nc1ccccc1C` (some centres undefined), the AC35 is 2.75 µM.

Turning to `COc1cc(C(=O)NC2CCN(C)CC2)ccc1Nc1ncc2c(n1)N(CCc1ccccc1)CCC(=O)N2C`, the AC35 is 0.172 µM.

As for `COc1cc(C(=O)N/N=C(\C)c2ccc3c(c2)OCO3)cc(OC)c1OC`, the AC35 is 0.0924 µM.

With `CCOC(=O)[C@H]1[C@H]2COc3ccc(OC)cc3[C@@H]2N2C(=O)c3cc(OC)c(OC)cc3NC(=O)[C@@]12C`, the AC35 is 3.03 µM.

Turning to `CC[C@]12c3[nH]c4cc(CCC(=O)N(C)C)ccc4c3CCN1C(=O)[C@@H](CC(=O)NC/C=C(\C)CCC=C(C)C)C[C@@H]2C(=O)N1CCN(C(=O)c2ccco2)CC1`, the AC35 is 0.267 µM.

Consider `Cc1noc(C)c1COc1cccc(C(=O)OC(C)C(=O)Nc2ccc3c(c2)OCO3)c1` (centres undefined), for which the AC35 is 1.6 µM.

`O=C(COc1ccccc1)Nc1cccc(-c2cn3cccnc3n2)c1`: the AC35 was 1.08 µM.

For `CCOC(=O)c1c(C)nc2c(c1-c1cc(OC)c(OC)c(OC)c1)C(=O)c1ccccc1-2`, the AC35 is 0.514 µM.

On to `Cc1ccc2nc(Cl)c(/C=C/C(=O)c3ccco3)cc2c1`, for which the AC35 was 1.53 µM.

As for `O=C(COC(=O)c1cccc(Br)c1)Nc1cccc2c1C(=O)c1ccccc1C2=O`, the AC35 was 1.15 µM.

As to `O=C(NCCN1C(=O)S/C(=C\c2ccccc2F)C1=O)C1=COCCO1`, the AC35 is 0.214 µM.

As for `CCOC(=O)c1c(C)[nH]c(C(=O)N/N=C/c2ccc(OC)c(OC)c2)c1C`, the AC35 was 0.526 µM.

As to `C(=N\Nc1nc2ccccc2[nH]1)/c1c[nH]c2ccccc12`, the AC35 was 0.718 µM.

As for `O=C(Nc1ccccc1O)c1ccc(NS(=O)(=O)c2cccc3cccnc23)cc1`, the AC35 is 4.41 µM.

As for `COc1cc(-c2coc3c(C(=O)NCc4ccc(OC)c(OC)c4)cccc23)ccc1O`, the AC35 is 2.8 µM.

Regarding `Cc1ccc(Nc2nc(-c3sc(C)nc3C)cs2)cc1`, the AC35 was 0.0469 µM.

For the compound `NNC(=O)c1oc2nc(-c3cccs3)cc(-c3ccco3)c2c1N`, the AC35 was 2.93 µM.

As to `Cc1nn(-c2ccccc2)c2c1CC(=O)Nc1ccccc1-2`, the AC35 was 3.16 µM.

In the case of `Nc1nc(-c2ccccc2)cc(-c2ccccc2O)n1`, the AC35 was 1.76 µM.

As to `Cc1cc(=O)oc2cc(OCC3CC(c4ccccc4)=NO3)ccc12` (centres undefined), the AC35 is 1.54 µM.

As to `Cc1cc2nnc(SCC(=O)NCc3ccco3)n2c2ccccc12`, the AC35 is 16.6 µM.

Take `COc1cccc(C2=CC(c3cccs3)n3nnnc3N2)c1` (centres undefined): the AC35 is 0.951 µM.

Take `COc1cc(Nc2c3ccccc3nc3ccccc23)cc(OC)c1OC`: the AC35 is 4.16 µM.

Regarding `O=c1cc(N2CCN(c3ccccc3Cl)CC2)[nH]c(=O)n1Cc1ccc(F)cc1`, the AC35 is 3.26 µM.

In the case of `COc1cc(C(=O)NC2CCN(C)CC2)ccc1Nc1ncc2c(n1)N(C1CCCCC1)CCC(=O)N2C`, the AC35 is 0.0305 µM.

As to `COc1ccc(Nc2nc(N(C)c3ccccc3)nc(N)c2[N+](=O)[O-])cc1`, the AC35 was 0.171 µM.

On to `CC(C)C1N=C(c2ccc3c(c2)OCO3)CC(c2ccccc2O)N1` (centres undefined), for which the AC35 is 3.51 µM.

As to `O=C(NCCCn1ccnc1)c1cc(-c2cccs2)on1`, the AC35 was 2.02 µM.

For `CC(=O)c1c(C)[nH]c(C(=O)Nc2cccc(S(=O)(=O)N3CCCC3)c2)c1C`, the AC35 is 3.95 µM.

As to `CCN(CCCNC(=O)COc1cc(=O)n(CC)c2ccccc12)Cc1ccccc1`, the AC35 is 0.517 µM.

For the compound `Cc1cc(C)nc(/N=C(\N)Nc2ccc(CC(=O)OC(C)C)cc2)n1`, the AC35 is 1.68 µM.

For `CCN(c1ccccc1)S(=O)(=O)c1ccc(N)c(OC)c1`, the AC35 was 1.82 µM.

In the case of `CC(=O)c1cccc(Nc2cc(C)nc3c(C)cc(C)cc23)c1`, the AC35 was 0.0234 µM.

On to `COc1ccc(NC(=O)C2Cc3c(-c4cccc(NC(C)=O)c4)ccnc3O2)cc1OC` (centres undefined), for which the AC35 was 1.83 µM.

Turning to `CCc1ccc(OCC(=O)Nc2ccncc2)c(Br)c1`, the AC35 is 0.598 µM.

As to `COc1cc(-c2nc(-c3ccccc3)c(-c3cccs3)[nH]2)cc(OC)c1OC`, the AC35 was 7.05 µM.

Turning to `COc1cccc(C(N)c2nc(-c3csc4ccccc34)cs2)c1` (centres undefined), the AC35 is 4.88 µM.

On to `Cc1ccc(S(=O)(=O)Nc2ccc3c(c2)n(C)c(=O)n3C)cc1`, for which the AC35 is 0.694 µM.

As for `CC[C@H](C)C(=O)O[C@H]1C[C@@H](C)C=C2C=C[C@H](C)[C@H](CC[C@@H]3C[C@@H](O)CC(=O)O3)[C@H]21`, the AC35 was 0.695 µM.

Take `Cc1ccc(C)n1-c1cccc(NC(=O)c2ccccc2)c1`: the AC35 was 7.12 µM.

With `COc1cccc(-c2cnc3c(NC(C)=O)cc(-c4cc(F)ccc4OC)cn23)c1`, the AC35 was 4.27 µM.

Turning to `CCCCC[C@H](O)/C=C/[C@@H]1[C@@H](C/C=C\CCCC(=O)OC)[C@@H](O)C[C@H]1O`, the AC35 was less than 0.0012 µM.

As for `c1ccc(CNc2ncnc3c2cnn3-c2ccccc2)cc1`, the AC35 is 0.719 µM.

For the compound `CCc1ccc(OCC(=O)Nc2ccc(-c3cc4ccccc4oc3=O)c(OC)c2)cc1`, the AC35 is 0.734 µM.

On to `OCCCCCN=c1cc(-c2ccccc2)oc2ccc(Cl)cc12`, for which the AC35 was 2.19 µM.

Turning to `Cn1c(SCC(=O)c2ccc(F)cc2)ncc(C(=O)Nc2ccccc2)c1=O`, the AC35 was 1.69 µM.

As for `CCOC(=O)C1CCN(c2c(N3CCN(Cc4ccccc4)CC3)c(=O)c2=O)CC1`, the AC35 is 1.22 µM.

As to `COc1cc(C(=O)Nc2cc3c(cc2N2CCCCC2)n(C)c(=O)n3C)cc(OC)c1OC`, the AC35 is 0.0964 µM.

Regarding `Cc1ccc(C(=O)N/C(=C/c2ccco2)C(=O)NCCc2c[nH]c3ccccc23)cc1`, the AC35 was 1.75 µM.

For the compound `C[C@@]12C(=O)Nc3cc(F)ccc3C(=O)N1[C@H]1c3ccccc3OC[C@@H]1[C@@H]2c1ccccc1`, the AC35 is 1.51 µM.

Consider `Cc1cccc(NC(=O)c2cnn3ccccc23)c1C`, for which the AC35 was 0.532 µM.

With `COc1ccc(/C=C2\SC(=O)N(CCNC(=O)C3=COCCO3)C2=O)cc1`, the AC35 is 0.854 µM.

Turning to `COc1ccc(Sc2nnc(Cc3ccccc3)c3ccccc23)cc1`, the AC35 was 4.37 µM.

As for `O=C(Nc1ccc(Cc2ccncc2)cc1)c1ccc([N+](=O)[O-])o1`, the AC35 is 2.68 µM.

`C[C@H](CO)N1C[C@H](C)[C@@H](CN(C)S(=O)(=O)c2cccs2)Oc2c(NC(=O)Cc3ccccc3)cccc2C1=O`: the AC35 was 2.96 µM.

For the compound `CCOc1ccc(C(=O)n2cc(C(=O)OC)c3ccccc32)cc1`, the AC35 is 6.03 µM.

On to `Cn1nc(C(=O)Nc2cccc(S(=O)(=O)N3CCCCC3)c2)c2ccccc2c1=O`, for which the AC35 is 0.0503 µM.

For `Oc1ccc(C2=NNC(=NCc3ccc4c(c3)OCO4)SC2)c(O)c1`, the AC35 was 3.12 µM.

With `COc1cc(NC(=O)CN2c3cccc4cccc(c34)S2(=O)=O)cc(OC)c1OC`, the AC35 was 7.53 µM.

`O=C(NO)c1ccc(OC(F)F)cc1`: the AC35 is 1.52 µM.

For the compound `O=C(CCl)Nc1cc(S(=O)(=O)N2CCCCCC2)ccc1Cl`, the AC35 was 1.16 µM.

As to `COc1ccc(-c2cc(C(=O)NCC(c3ccccc3)N(C)C)c3ccccc3n2)cc1OC` (centres undefined), the AC35 is 1.1 µM.

As for `O=C(c1ccc2ncsc2c1)N1CCN(c2cccc(C(F)(F)F)c2)CC1`, the AC35 was 0.629 µM.

Take `O=C(Nc1ncccc1O)c1ccc(S(=O)(=O)Nc2ccccc2)cc1`: the AC35 was 2.19 µM.

`COc1ccc2nc(C)cc(Nc3ccc(N4CCN(C)CC4)cc3)c2c1`: the AC35 is 4.75 µM.

Turning to `Cc1nc2ncccn2c1-c1csc(Nc2ccc(N(C)C)cc2)n1`, the AC35 was 0.0289 µM.

Take `CCc1cccc(CC)c1NC(=O)CN1C2CCCC1CC(NC(=O)Nc1cccc(OC)c1)C2` (centres undefined): the AC35 is 3.14 µM.

`CC12CC[C@H]3[C@@H](CCC4(O)C[C@H](O)CCC34/C=N/NC(=O)c3ccccc3[N+](=O)[O-])C1(O)CCC2C1=CC(=O)OC1` (some centres undefined): the AC35 was 4.03 µM.
